The text below walks through data of patent US20260042755A1, “GPR6 INVERSE AGONISTS” (MapLight Therapeutics, Inc., priority 2022, published 2026).

SMILES strings stand for the structures.

One assay deals with T1, GPR3 (Homo sapiens, UniProt P46089).
T1 construct: expressed in transfected cells; host or cells: CHO cells
The assay is described as follows: GPR3 antagonist functional cAMP assay (LANCE Ultra cAMP TR-FRET, CHO cells stably expressing GPR3). The format is cell-based. A digest of the protocol: (§1)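 We measure cAMP by TR-FRET (665 nm) in cells held in glucose-containing Krebs-Ringer buffer with BSA and a PDE inhibitor, after a 45 min, 37 °C compound incubation. IC50s derive from a four-parameter logistic fit.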

A further assay has as its target T2, GPR6 (Homo sapiens, UniProt P46095).
T2 construct: expressed in transfected cells; host or cells: CHO cells
The assay is described as follows: GPR6 antagonist functional cAMP assay (LANCE Ultra cAMP TR-FRET, CHO cells stably expressing GPR6). The format is cell-based. An outline of the steps: as §1

Setting [1] is: CHO cells stably expressing GPR3, cAMP assay (Example 24).
Setting [2] is: CHO cells stably expressing GPR6, cAMP assay (Example 24).
Where [3] appears, read: CHO cells stably expressing GPR3, cAMP assay.
Where [4] appears, read: CHO cells stably expressing GPR6, cAMP assay.
[5] abbreviates: procedure as described in Example 24.

T2 sequence (P46095 whole entry): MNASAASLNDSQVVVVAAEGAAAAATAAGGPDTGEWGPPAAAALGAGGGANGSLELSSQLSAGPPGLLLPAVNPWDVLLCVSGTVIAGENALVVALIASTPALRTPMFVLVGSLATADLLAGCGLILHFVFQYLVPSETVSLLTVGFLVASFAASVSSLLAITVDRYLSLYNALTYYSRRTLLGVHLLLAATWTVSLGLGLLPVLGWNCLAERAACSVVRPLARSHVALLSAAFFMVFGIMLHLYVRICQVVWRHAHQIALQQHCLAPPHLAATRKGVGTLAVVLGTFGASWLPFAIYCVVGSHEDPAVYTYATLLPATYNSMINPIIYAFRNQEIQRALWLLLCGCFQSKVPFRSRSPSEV
T1 sequence (P46089 whole entry, species assumed): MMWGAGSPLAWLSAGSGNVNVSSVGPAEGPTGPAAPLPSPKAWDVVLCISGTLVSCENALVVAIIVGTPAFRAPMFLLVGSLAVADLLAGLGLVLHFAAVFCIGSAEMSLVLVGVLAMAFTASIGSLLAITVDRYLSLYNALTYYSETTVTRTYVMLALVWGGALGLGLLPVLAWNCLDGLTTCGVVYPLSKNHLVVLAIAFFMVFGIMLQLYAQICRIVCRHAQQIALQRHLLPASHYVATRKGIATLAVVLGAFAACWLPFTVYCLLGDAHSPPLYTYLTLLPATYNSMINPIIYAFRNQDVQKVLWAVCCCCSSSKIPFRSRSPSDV

On to `CC(=O)N1CCc2nc(N3CCC(Oc4ccc(F)cc4F)CC3)c(-c3cncc(C)n3)nc2C1` [Compound 444, 1-{2-[4-(2,4-difluorophenoxy)piperidin-1-yl]-3-(6-methylpyrazin-2-yl)-5H,6H,7H,8H-pyrido[3,4-b]pyrazin-6-yl}ethan-1-one], for which the IC50 against GPR3 (setting [1]) and against GPR6 (setting [2]) was 1000 to 30000 nM throughout.

In the case of `COCC(=O)N1CCc2nc(N3CCC(Oc4ccc(F)cc4F)CC3)c(-c3ccc(F)c(N)n3)nc2C1` [Compound 628, 1-{3-(6-amino-5-fluoro-2-pyridyl)-2-[4-(2,4-difluorophenoxy)-1-piperidyl]-5,6,7,8-tetrahydro-1,4,6-triaza-6-naphthyl}-2-methoxy-1-ethanone], the IC50 was in the range of 1000 to 30000 nM against GPR3 (procedure of Example 24) and 100 to 1000 nM against GPR6 (procedure of Example 24).

For the compound `CCn1cc(-c2nc3cnc([C@](C)(O)C(C)(C)O)cc3nc2N2CCC(Oc3ccc(F)cc3F)CC2)cn1` (single isomer, unassigned) [Compound 735], the IC50 against GPR3 (procedure of Example 24) lay in the range of 1000 to 30000 nM; on GPR6 (procedure of Example 24) it was 100 to 1000 nM.

For the compound `C=CC(=O)N1CCc2nc(N3CCC(Oc4ccc(F)cc4F)CC3)c(-c3cnn(C4CCCCO4)c3)nc2C1` (stereo not drawn) [Compound 185, 1-{2-[4-(2,4-difluorophenoxy)piperidin-1-yl]-3-[1-(oxan-2-yl)-1H-pyrazol-4-yl]-5H,6H,7H,8H-pyrido[3,4-b]pyrazin-6-yl}prop-2-en-1-one], the IC50 was in the range of 1000 to 30000 nM against GPR3 (setting [1]) and 100 to 1000 nM against GPR6 (setting [2]).

On to `COCC(C)(O)c1cc2nc(N3CCC(Oc4ccc(F)cc4F)CC3)c(-c3cnn(C)c3)nc2cn1` (stereo not drawn) [Compound 567, 2-{2-[4-(2,4-difluorophenoxy)-1-piperidyl]-3-(1-methyl-4-pyrazolyl)-1,4,6-triaza-7-naphthyl}-1-methoxy-2-propanol], for which the results for the IC50 against GPR3 (setting [3]) and against GPR6 (setting [4]) were 1000 to 30000 nM and 100 to 1000 nM, respectively.

Consider `Cn1cc(-c2nc3cnccc3nc2N2CCN(Cc3ccc(F)cc3F)C(=O)C2)cn1` [Compound 127, 1-[(2,4-difluorophenyl)methyl]-4-[3-(1-methyl-1H-pyrazol-4-yl)pyrido[3,4-b]pyrazin-2-yl]piperazin-2-one], for which the IC50 on GPR3 (setting [1]) and against GPR6 (setting [2]) was not below 30000 nM in each case.

Regarding `Nc1cc2nc(N3CCC(Oc4ccc(F)cc4F)CC3)c(-c3cnn(C(F)F)c3)nc2cn1` [Compound 460, 3-[1-(difluoromethyl)-1H-pyrazol-4-yl]-2-[4-(2,4-difluorophenoxy)piperidin-1-yl]pyrido[3,4-b]pyrazin-7-amine], the half-maximal inhibitory concentration (IC50) against GPR3 (setting [1]) fell in the range of 1000 to 30000 nM; against GPR6 (setting [2]) it was 100 to 1000 nM.

Take `CC(C)(O)[C@@H](O)c1cc2nc(N3CCN(Cc4ccc(F)cc4F)CC3)c(-c3cnn(CF)c3)nc2cn1` (single isomer, unassigned) [Compound 599]: the IC50 against GPR3 (setting [3]) is 1000 to 30000 nM; at GPR6 (setting [4]), 100 to 1000 nM.

`CC(=O)N1CCc2nc(N3CCN(Cc4cc(C#N)ccc4F)CC3)c(-c3cnn(C)c3)nc2C1` [Compound 357, 3-({4-[6-acetyl-3-(1-methyl-1H-pyrazol-4-yl)-5H,6H,7H,8H-pyrido[3,4-b]pyrazin-2-yl]piperazin-1-yl}methyl)-4-fluorobenzonitrile]: the IC50 against GPR3 (procedure of Example 24) and against GPR6 (procedure of Example 24) was 1000 to 30000 nM in each case.

For `CC(C)(O)Cc1cc2nc(N3CCC(Oc4ccc(F)cc4F)CC3)c(-c3cnn(C(F)F)c3)nc2cn1` [Compound 700, 1-{3-[1-(difluoromethyl)-4-pyrazolyl]-2-[4-(2,4-difluorophenoxy)-1-piperidyl]-1,4,6-triaza-7-naphthyl}-2-methyl-2-propanol], the IC50 on GPR3 (procedure of Example 24) fell in the range of 1000 to 30000 nM; against GPR6 (procedure of Example 24) it was 100 to 1000 nM.

As to `Cn1cc(-c2nc3cc(C(O)C(C)(C)O)ncc3nc2N2CCN(Cc3ccc(F)cc3F)CC2)cn1` (stereo not drawn) [Compound 268, 1-(3-{4-[(2,4-difluorophenyl)methyl]piperazin-1-yl}-2-(1-methyl-1H-pyrazol-4-yl)pyrido[3,4-b]pyrazin-7-yl)-2-methylpropane-1,2-diol], the IC50 is 1000 to 30000 nM against GPR3 (procedure of Example 24) and less than 100 nM against GPR6 (procedure of Example 24).

As to `N#Cc1ccc2nc(N3CCN(Cc4cc(Cl)ccc4Cl)CC3)c(-c3ncc[nH]3)nc2c1` [Compound 27, 2-{4-[(2,5-dichlorophenyl)methyl]piperazin-1-yl}-3-(1H-imidazol-2-yl)quinoxaline-6-carbonitrile], the values for the IC50 against GPR3 (setting [5]) and against GPR6 (setting [5]) were 100 to 1000 nM and 1000 to 30000 nM, respectively.

Consider `CC1CN(c2nc3ccncc3nc2-c2cn[nH]c2)CCN1Cc1ccc(F)cc1F` (single isomer, unassigned) [Compound 49, 2-(4-(2,4-difluorobenzyl)-3-methylpiperazin-1-yl)-3-(1H-pyrazol-4-yl)pyrido[3,4-b]pyrazine], for which the IC50 on GPR3 (setting [5]) and on GPR6 (setting [5]) was 1000 to 30000 nM throughout.

`COC[C@@H](O)c1cc2nc(N3CCC(Oc4ccc(F)cc4F)CC3)c(-c3cnn(C)c3)nc2cn1` (single isomer, unassigned) [Compound 642]: the IC50 lay in the range of 1000 to 30000 nM on GPR3 (procedure of Example 24) and 100 to 1000 nM against GPR6 (procedure of Example 24).

As for `Fc1ccc(OC2CCN(c3nc4c(nc3-c3cn[nH]c3)CNCC4)CC2)c(F)c1` [Compound 124, 4-(2,4-difluorophenoxy)-1-[3-(1H-pyrazol-4-yl)-5H,6H,7H,8H-pyrido[3,4-b]pyrazin-2-yl]piperidine], the IC50 against GPR3 (setting [1]) and at GPR6 (setting [2]) was 1000 to 30000 nM each time.

For the compound `Cn1cc(-c2nc3cc(C(C)(O)C(C)(C)O)ncc3nc2N2CCN(Cc3ccc(F)cc3F)CC2)cn1` (stereo not drawn) [Compound 604, 2-(3-{4-[(2,4-difluorophenyl)methyl]-1-piperazinyl}-2-(1-methyl-4-pyrazolyl)-1,4,6-triaza-7-naphthyl)-3-methyl-2,3-butanediol], the IC50 at GPR3 (setting [3]) lay within 1000 to 30000 nM; on GPR6 (setting [4]) it was 100 to 1000 nM.

As to `CCn1cc(-c2nc3cnc(C(C)(O)C(C)(C)O)cc3nc2N2CCC(Oc3ccc(F)cc3F)CC2)cn1` (stereo not drawn) [Compound 631, 2-{2-[4-(2,4-difluorophenoxy)-1-piperidyl]-3-(1-ethyl-4-pyrazolyl)-1,4,6-triaza-7-naphthyl}-3-methyl-2,3-butanediol], the IC50 fell in the range of 1000 to 30000 nM on GPR3 (procedure of Example 24) and 100 to 1000 nM against GPR6 (procedure of Example 24).

For the compound `COC(=O)/C(C)=C/c1cc2nc(N3CCC(Oc4ccc(F)cc4F)CC3)c(-c3cnn(C)c3)nc2cn1` [Compound 734, methyl 3-{2-[4-(2,4-difluorophenoxy)-1-piperidyl]-3-(1-methyl-4-pyrazolyl)-1,4,6-triaza-7-naphthyl}methacrylate], the IC50 on GPR3 (procedure of Example 24) and against GPR6 (procedure of Example 24) was 1000 to 30000 nM each time.

For `CC(=O)N1CCc2nc(N3CCC(Oc4ccccc4)C3)c(-c3cnn(C)c3)nc2C1` (stereo not drawn) [Compound 418, 1-[3-(1-methyl-1H-pyrazol-4-yl)-2-(3-phenoxypyrrolidin-1-yl)-5H,6H,7H,8H-pyrido[3,4-b]pyrazin-6-yl]ethan-1-one], the IC50 at GPR3 (setting [1]) and against GPR6 (setting [2]) was 1000 to 30000 nM in each case.

On to `CC(=O)N1CCc2nc(N3CCC(Oc4ccc(F)cc4F)CC3)c(-c3cccc(=O)n3C)nc2C1` [Compound 36, 6-{6-acetyl-2-[4-(2,4-difluorophenoxy)piperidin-1-yl]-5H,6H,7H,8H-pyrido[3,4-b]pyrazin-3-yl}-1-methyl-1,2-dihydropyridin-2-one], for which the IC50 against GPR3 (setting [5]) fell in the range of 100 to 1000 nM; at GPR6 (setting [5]), 1000 to 30000 nM.

Consider `CC(=O)N1CCc2nc(N3CCC(Oc4ccc(F)cc4F)CC3)c(-c3cccc(C)n3)nc2C1` [Compound 68, 1-{2-[4-(2,4-difluorophenoxy)piperidin-1-yl]-3-(6-methylpyridin-2-yl)-5H,6H,7H,8H-pyrido[3,4-b]pyrazin-6-yl}ethan-1-one], for which the figures for the IC50 against GPR3 (setting [1]) and on GPR6 (setting [2]) were 1000 to 30000 nM and 100 to 1000 nM, respectively.

On to `COC[C@@H](O)c1cc2nc(-c3cnn(C)c3)c(N3CCC(Oc4ccc(F)cc4F)CC3)nc2cn1` (single isomer, unassigned) [Compound 680], for which the IC50 is 100 to 1000 nM at GPR3 (procedure of Example 24) and less than 100 nM against GPR6 (procedure of Example 24).

Take `CC(O)C(O)c1cc2nc(N3CCC(Oc4ccc(F)cc4F)CC3)c(-c3cnn(C)c3)nc2cn1` (stereo not drawn) [Compound 401, 1-{2-[4-(2,4-difluorophenoxy)piperidin-1-yl]-3-(1-methyl-1H-pyrazol-4-yl)pyrido[3,4-b]pyrazin-7-yl}propane-1,2-diol]: the IC50 at GPR3 (setting [1]) lay within 1000 to 30000 nM; on GPR6 (setting [2]), 100 to 1000 nM.

Regarding `CNC(=O)N1CCc2nc(N3CCC(Oc4ccc(F)cc4F)CC3)c(-c3cnn(C4CCCCO4)c3)nc2C1` (stereo not drawn) [Compound 181, 2-[4-(2,4-difluorophenoxy)piperidin-1-yl]-N-methyl-3-[1-(oxan-2-yl)-1H-pyrazol-4-yl]-5H,6H,7H,8H-pyrido[3,4-b]pyrazine-6-carboxamide], the IC50 at GPR3 (setting [1]) and at GPR6 (setting [2]) was 1000 to 30000 nM throughout.

For the compound `CCn1cc(-c2nc3c(nc2N2CCC(Oc4ccc(F)cc4F)CC2)CCN(C(=O)C2COCCN2)C3)cn1` (stereo not drawn) [Compound 491, 3-{2-[4-(2,4-difluorophenoxy)piperidin-1-yl]-3-(1-ethyl-1H-pyrazol-4-yl)-5H,6H,7H,8H-pyrido[3,4-b]pyrazine-6-carbonyl}morpholine], the IC50 is 1000 to 30000 nM against GPR3 (setting [3]) and less than 100 nM at GPR6 (setting [4]).

As to `COc1cccc(-c2nc3c(nc2N2CCN(Cc4cc(Cl)ccc4Cl)CC2)CCN(C(C)=O)C3)n1` [Compound 183, 1-(2-{4-[(2,5-dichlorophenyl)methyl]piperazin-1-yl}-3-(6-methoxypyridin-2-yl)-5H,6H,7H,8H-pyrido[3,4-b]pyrazin-6-yl)ethan-1-one], the IC50 on GPR3 (setting [1]) is 1000 to 30000 nM; at GPR6 (setting [2]), less than 100 nM.

In the case of `CC(=O)N1CCc2nc(N3CCN(Cc4ccc(Cl)cc4Cl)CC3)c(-c3cnn(C)c3)nc2C1` [Compound 350, 1-(2-{4-[(2,4-dichlorophenyl)methyl]piperazin-1-yl}-3-(1-methyl-1H-pyrazol-4-yl)-5H,6H,7H,8H-pyrido[3,4-b]pyrazin-6-yl)ethan-1-one], the IC50 against GPR3 (procedure of Example 24) and on GPR6 (procedure of Example 24) was 1000 to 30000 nM in each case.
